Test results taken from PMC9686653, “Bioengineered Nisin A Derivatives Display Enhanced Activity against Clinical Neonatal Pathogens” (Antibiotics, 2022).
In brackets after ≈: the same amount, converted by molar mass. Where two headings read alike, the source gives them in different places. Where no end group is shown, it is not given here.

Key:
[1] = cited from earlier work
Excerpt: NSR degrades nisin by cleaving the pept ...

S. capitis AY41 = test: microbe, parasite or virus in culture; assay type: cell-based, Staphylococcus capitis
Description: (§1) MIC determinations were carried out in triplicate in 96-well microtiter plates (Sarstedt, Newton, NC, USA) as previously described. Initially, 200µL of 1% bovine serum albumin (BSA) (Sigma-Aldrich, St. Louis, MO, USA) (in PBS) was added to the plates which were incubated at 37 °C for 30 min. The solution was removed, plates were washed with 200 µL PBS and then air dried in a laminar flow hood. Target strains (Streptococcus agalactiae, Staphylococcus capitis and Lactococcus lactis) were grown overnight in suitable media under appropriate conditions and were subsequently sub-cultured into fresh broth and allowed to grow to an optical density of ~0.5 (OD600). The culture was then diluted to a final concentration of 10^5 CFU mL^−1 in a volume of 1 mL. The peptides were resuspended in appropriate media to a stock concentration of […] (S. agalactiae and S. capitis strains) and […] (L. lactis strains). Nisin A and nisin derivatives were adjusted to a starting concentration of 15 µM (S. agalactiae and S. capitis strains) or 5 µM (L. lactis strains). […] An aliquot of 100 µL of peptides and or antibiotics were added to the first well, mixed and then 2-fold serial dilutions of each peptide were made in TSBYE broth. Then, 100 µL of target strain was added to each test well, and the plates were incubated at 30 °C or 37 °C for 16 h. The MIC was read as the lowest peptide concentration causing inhibition of visible growth. Experiments were performed in triplicate.

S. agalactiae CIT 239 = test: Broth MIC assay; assay type: cell-based, Streptococcus agalactiae
Description: as §1

S. agalactiae CIT 364 = test: Broth MIC assay; assay type: cell-based, Streptococcus agalactiae; settings: broth microdilution in TSBYE, 10^5 CFU/mL, 16 h, 37 °C, average of three independent biological repeats
Description: as §1

S. agalactiae CIT 67 = test: Broth MIC assay; assay type: cell-based, Streptococcus agalactiae; settings: broth microdilution in TSBYE, 10^5 CFU/mL, 16 h, 37 °C, average of three independent biological repeats
Description: as §1

S. agalactiae CIT 85 = test: Broth MIC assay; assay type: cell-based, Streptococcus agalactiae
Description: as §1

S. agalactiae CIT 87 = test: Broth MIC assay; assay type: cell-based, Streptococcus agalactiae; settings: broth microdilution in TSBYE, 10^5 CFU/mL, 16 h, 37 °C, average of three independent biological repeats
Description: as §1

S. capitis AR18 = test: Broth MIC assay; assay type: cell-based; settings: Staphylococcus capitis
Description: as §1

S. capitis AV80 = test: Broth MIC assay; assay type: cell-based; settings: Staphylococcus capitis
Description: as §1

S. agalactiae strains = test: Broth MIC assay, summary over isolates; assay type: cell-based, Streptococcus agalactiae; settings: Streptococcus agalactiae, read-out: MIC values over S. agalactiae strains, span over the isolates the sentence refers to (three, four or all five)
Description: as §1

S. capitis BD01 = test: Broth MIC assay; assay type: cell-based, Staphylococcus capitis
Description: as §1

S. capitis BA06 = test: Broth MIC assay; assay type: cell-based, Staphylococcus capitis; settings: Staphylococcus capitis
Description: as §1

[2] = broth microdilution in TSBYE, 10^5 CFU/mL, 16 h, 37 °C, average of three independent biological repeats

Q: With “nisin 1–28: truncated nisin structure left after NSR cleavage (ITSISLCTPGCKTGALMGCNMKTATCHC; ends and bridges not checked; also: lantibiotic thioether rings (Lan/MeLan) and dehydro residues, places not given here; UniProt P13068 24-51, looked up, fragment)” as the compound, how does the “decrease in antimicrobial activity compared to nisin” value [1] read?
A: Its value is “up to 100 fold”.

Q: Which results are given for `CC[C@H]1OC(=O)[C@H](C)[C@@H](O[C@H]2C[C@@](C)(OC)[C@@H](O)[C@H](C)O2)[C@H](C)[C@@H](O[C@@H]2O[C@H](C)C[C@H](N(C)C)[C@H]2O)[C@](C)(O)C[C@@H](C)C(=O)[C@H](C)[C@@H](O)[C@]1(C)O` [Erythromycin, erythromycin]?
A: MIC (S. capitis AY41; Staphylococcus capitis, AY41, broth microdilution in TSBYE, 10^5 CFU/mL, 16 h, 37 °C, average of three independent biological repeats, read-out: MIC): 0.195 µg/mL (≈ 0.266 µM); MIC (S. agalactiae CIT 239; Streptococcus agalactiae, CIT239, 16 h): 1.56 µg/mL (≈ 2.13 µM); MIC (S. agalactiae CIT 364; Streptococcus agalactiae, CIT364, read-out: MIC): 0.78 µg/mL (≈ 1.06 µM); MIC (S. agalactiae CIT 67; Streptococcus agalactiae, CIT67, read-out: MIC): 1 µg/mL (≈ 1.36 µM); MIC (S. agalactiae CIT 85; Streptococcus agalactiae, CIT85, 16 h): 3.13 µg/mL (≈ 4.26 µM); MIC (S. agalactiae CIT 87; Streptococcus agalactiae, CIT87, read-out: MIC): 0.39 µg/mL (≈ 0.531 µM); MIC (S. capitis AR18; AR18, broth microdilution in TSBYE, 10^5 CFU/mL, 16 h, 37 °C, average of three independent biological repeats, read-out: MIC): 0.097 µg/mL (≈ 0.132 µM); MIC (S. capitis AV80; AV80, broth microdilution in TSBYE, 10^5 CFU/mL, 16 h, 37 °C, average of three independent biological repeats, read-out: MIC): 12.5 µg/mL (≈ 17 µM); MIC (S. agalactiae strains): 0.78 to 3.13 µg/mL (≈ 1.06 to 4.26 µM); MIC (S. capitis BD01; Staphylococcus capitis, BD01, broth microdilution in TSBYE, 10^5 CFU/mL, 16 h, 37 °C, average of three independent biological repeats, read-out: MIC): 6.25 µg/mL (≈ 8.52 µM); MIC (S. capitis BA06; BA06, broth microdilution in TSBYE, 10^5 CFU/mL, 16 h, 37 °C, average of three independent biological repeats, read-out: MIC): 12.5 µg/mL (≈ 17 µM)

Q: Which results are given for `CN[C@H](CC(C)C)C(=O)N[C@H]1C(=O)N[C@@H](CC(N)=O)C(=O)N[C@H]2C(=O)N[C@H]3C(=O)N[C@H](C(=O)N[C@H](C(=O)O)c4cc(O)cc(O)c4-c4cc3ccc4O)[C@H](O)c3ccc(c(Cl)c3)Oc3cc2cc(c3O[C@@H]2O[C@H](CO)[C@@H](O)[C@H](O)[C@H]2O[C@H]2C[C@](C)(N)[C@H](O)[C@H](C)O2)Oc2ccc(cc2Cl)[C@H]1O` [Vancomycin, vancomycin]?
A: MIC (S. capitis AY41; Staphylococcus capitis, AY41, 16 h): 1.56 µg/mL (≈ 1.08 µM); MIC (S. capitis AR18; AR18, 16 h): 1.56 µg/mL (≈ 1.08 µM); MIC (S. capitis AV80; AV80, 16 h): 3.13 µg/mL (≈ 2.16 µM); MIC (S. capitis BD01; Staphylococcus capitis, BD01, 16 h): 3.13 µg/mL (≈ 2.16 µM); MIC (S. capitis BA06; BA06, 16 h): 1.56 µg/mL (≈ 1.08 µM)

Q: Which results are given for penicillin?
A: MIC (S. capitis AY41; [2]): 0.39 µg/mL; MIC (S. agalactiae CIT 239; [2]): 0.02 µg/mL; MIC (S. agalactiae CIT 364): 0.02 µg/mL; MIC (S. agalactiae CIT 67): 0.04 µg/mL; MIC (S. agalactiae CIT 85; [2]): 0.012 µg/mL; MIC (S. agalactiae CIT 87): 0.02 µg/mL; MIC (S. capitis BD01; [2]): 6.25 µg/mL
